Data: US20250332080A1, “Skin Cell Energy Booster Composition” (CarboCode S.A., priority 2022, published 2025)

Test system: Reconstructed Human Epidermis (RHE)
Test: Proteomic (LC-MS/MS) analysis of Reconstructed Human Epidermis treated topically with ceramide in base emulsion
Type: cell-based
Conditions: topical 24 h, 0.01%, 0.03%, 0.15% ceramide in vehicle vs vehicle
From the text: FIGS. 1 to 3 show heatmaps using a log 2 scale with up- or downregulation of respective proteins upon treatment with 0.01% (01), 0.03% (03) and 0.15% (15) of respective ceramide in vehicle as compared to vehicle without ceramide (VEH) (FIG. 1: GlcCerNS, FIG. 2: LacCerNS, FIG. 3: CerNG); detailed experimental setup explained in Example 1.
Material and methods: Reconstructed Human Epidermis (RHE) cell culture was used, as this system mimics the in vivo 3D structure of epidermal tissue as well as the conditions and processes that occur in normal epidermis. RHE were cultured using the medium provided by the manufacturer until analysis. RHE were maintained in survival for 24 hours, before RHE were topically treated with lipid in a base emulsion for 24 h. 3 RHE were treated with base emulsion alone and 3 more remained untreated as a control batch (Ctrl). RHE were incubated under classical cell culture conditions (37° C., 5% CO2).
Sample preparation and LC-MS/MS analysis: Protein was extracted using the Pierce Total Protein Extraction Kit (Thermo Fisher) according to manufacturer's recommendations. The protein was mixed with Laemmli buffer and heated to 37° C. for 30 min. Protein concentration was determined by the BCA method and standardized for all samples. The samples were separated by SDS-PAGE and digested with trypsin overnight. The peptides generated were acidified and separated. The mass spectra were queried using Proteome Discoverer (version 2.5). The resulting MS/MS data were queried against the Homo sapiens proteome UP000005640 (20371 reviewed entries). Results were filtered based on unique peptides>2, and global peptide scores. Analyses were performed using Proteome Discoverer 2.5 to check for overall sample quality.
Bioinformatics and statistical analysis: Proteomic analysis returned a mean total of 34961 high-quality peptides corresponding to a mean 2422 identifiable and quantifiable RHE proteins among conditions. Proteins with a p-value<0.05 in at least one of the concentrations tested for a lipid were considered significant and used for pairwise comparisons. Relevant proteins were classified by their biological processes and associated pathways using the publicly available gene ontology (GO) database provided by the Gene Ontology Consortium and Reactome. Interactome analysis was performed using Cytoscape combined with STRING.

Glucosyl ceramide [GlcCer]
upregulation: ATP synthase subunit delta (mitochondrial) protein level | ATP synthase subunit g (mitochondrial) protein level | ATP-dependent zinc metalloprotease YME1L1 protein level | NAD-dependent malic enzyme (mitochondrial) protein level | NADH dehydrogenase [ubiquinone]1 alpha subcomplex subunit 8 protein level | NADH dehydrogenase [ubiquinone]iron-sulfur protein 2 (mitochondrial) protein level | cytochrome c oxidase subunit 6C protein level | phosphomevalonate kinase protein level

ceramide NG
upregulation: ATP synthase subunit delta (mitochondrial) protein level | ATP synthase subunit g (mitochondrial) protein level | cytochrome c oxidase subunit 6C protein level | phosphomevalonate kinase protein level

lactosyl ceramide
upregulation: ATP synthase subunit delta (mitochondrial) protein level | ATP synthase subunit g (mitochondrial) protein level | ATP-dependent zinc metalloprotease YME1L1 protein level | NAD-dependent malic enzyme (mitochondrial) protein level | cytochrome b-c1 complex subunit 9 protein level | cytochrome c oxidase subunit 2 protein level | cytochrome c oxidase subunit 6C protein level | cytochrome c oxidase subunit NDUFA4 protein level | phosphomevalonate kinase protein level
